Experimental data taken from patent publication US8686146B2, “Azaindenoisoquinoline topoisomerase I inhibitors” (Purdue Research Foundation, priority 2012, dated 2014).
Structures can show the parent of a compound that is named as a salt.

How the values were obtained:
[1] = tested on: SN12C; assay: NCI screen antiproliferative activity, renal SN12C
Method: (§1) Cells of approximately 60 different human cancer cell lines were incubated for 48 h with five 10-fold dilutions of the tested compounds starting from 100 μM and then treated with sulforhodamine B dye. The ratios of recorded optical densities relative to that of the control were plotted as a function of the common logarithm of the tested compound concentrations. […] The GI50 and the mean graph midpoint (MGM) values of the prepared indenoisoquinolines in selected cell lines are presented in Table I.
(§2) The antiproliferative activity of each compound was determined in the National Cancer Institute (NCI) screen as described above. Cells of approximately 60 different human cancer cell lines were incubated for 48 h with five 10-fold dilutions of the test compounds starting from 100 μM, and then treated with sulforhodamine B dye. The ratios of recorded optical densities relative to those of the control were plotted as a function of the common logarithm of the tested compound concentrations. […] The GI50 and the mean graph midpoint (MGM) values of the prepared (aza)indeno-isoquinolines in selected cell lines are presented in Table 2.

[2] = tested on: DU-145; assay: NCI screen antiproliferative activity, prostate DU-145
Method: as §1, §2

[3] = tested on: MCF7; assay: NCI screen antiproliferative activity, breast MCF7
Method: as §1, §2

[4] = tested on: HOP-62; assay: NCI screen antiproliferative activity, lung HOP-62
Method: as §1, §2

[5] = tested on: SF-539; assay: NCI screen antiproliferative activity, CNS SF-539
Method: as §1, §2

[6] = molecular target: T1, human recombinant Top1 (Homo sapiens, UniProt P11387); assay: Top1-mediated DNA cleavage assay; format: biochemical; settings: semiquantitative, relative to compounds 1 and 2; Table 2
T1 construct: made in house
T1 sequence (P11387 1-765): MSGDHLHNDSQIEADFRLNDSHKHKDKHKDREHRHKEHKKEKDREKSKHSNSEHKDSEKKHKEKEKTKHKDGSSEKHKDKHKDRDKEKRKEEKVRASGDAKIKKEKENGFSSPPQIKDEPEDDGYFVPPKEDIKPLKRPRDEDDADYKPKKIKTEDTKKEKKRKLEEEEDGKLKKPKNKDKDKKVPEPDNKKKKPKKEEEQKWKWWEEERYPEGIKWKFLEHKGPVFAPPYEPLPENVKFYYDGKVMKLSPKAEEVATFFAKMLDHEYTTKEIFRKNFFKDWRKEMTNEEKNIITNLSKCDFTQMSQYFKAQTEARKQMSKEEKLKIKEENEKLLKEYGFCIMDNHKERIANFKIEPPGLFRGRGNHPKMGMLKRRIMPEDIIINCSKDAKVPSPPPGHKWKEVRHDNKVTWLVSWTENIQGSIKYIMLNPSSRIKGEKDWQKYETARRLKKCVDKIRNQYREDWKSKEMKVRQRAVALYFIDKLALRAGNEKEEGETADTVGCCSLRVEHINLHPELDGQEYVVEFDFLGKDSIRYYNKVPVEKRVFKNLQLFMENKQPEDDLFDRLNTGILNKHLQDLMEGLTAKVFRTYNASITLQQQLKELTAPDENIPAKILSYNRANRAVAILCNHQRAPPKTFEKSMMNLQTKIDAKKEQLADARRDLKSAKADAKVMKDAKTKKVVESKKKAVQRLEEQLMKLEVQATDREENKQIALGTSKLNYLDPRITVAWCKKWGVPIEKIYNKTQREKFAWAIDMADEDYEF
Method: Unincorporated [^32P]dGTP was removed using mini Quick […] columns (Roche, Indianapolis, Ind.), and the eluate containing the […] DNA substrate was collected. […] Aliquots of each reaction mixture were subjected to 20% denaturing PAGE. […] The DNA fragments were separated on a denaturing gel. […] All of the target compounds were tested for induction of DNA damage in Top1-mediated DNA cleavage assays, as described above.

[7] = tested on: HCT-116; assay: NCI screen antiproliferative activity, colon HCT-116
Method: as §1, §2

[8] = tested on: approximately 60 different human cancer cell lines; assay: NCI screen, mean graph midpoint over all cell lines; format: cell-based; settings: all human cancer cell lines successfully tested; 48 h; Table 2
Method: as §1, §2

[9] = tested on: OVCAR-3; assay: NCI screen antiproliferative activity, ovarian OVCAR-3
Method: as §1, §2

[10] = tested on: UACC-62; assay: NCI screen antiproliferative activity, melanoma UACC-62
Method: as §1, §2

Structure (SMILES)	melting point	GI50 [1]	GI50 [2]	GI50 [3]	GI50 [4]	GI50 [5]	Top1 Cleavage [6]	GI50 [7]	MGM (mean graph midpoint for growth inhibition) [8]	GI50 [9]	GI50 [10]
CN(C)CCCn1c2c(c3ccccc3c1=O)C(=O)c1cccnc1-2 (as salt: hydrochloride) [Compound 18, 7-Aza-5,6-dihydro-6-(3-dimethylaminopropyl)-5,11-dioxo-11H-indeno[1,2-c]-isoquinoline Hydrochloride]	268 to 270 °C	–	–	–	–	–	–	–	–	–	–
COc1cc2c3c(n(CCCN(C)C)c(=O)c2cc1OC)-c1ncccc1C3=O (as salt: hydrochloride) [Compound 19, 7-Aza-5,6-dihydro-6-(3-dimethylaminopropyl)-2,3-dimethoxy-5,11-dioxo-11H-indeno[1,2-c]isoquinoline Hydrochloride]	278 to 281 °C (dec.)	–	–	–	–	–	–	–	–	–	–
COc1cc2c3c(n(CCCN4CCOCC4)c(=O)c2cc1OC)-c1cnccc1C3=O.O=C(O)C(F)(F)F [Compound 118, 8-Aza-5,6-dihydro-6-(3-(4-morpholino)propyl)-2,3-dimethoxy-5,11-dioxo-11H-indeno[1,2-c]isoquinoline Trifluoroacetate]	–	16 µM	24 µM	4.1 µM	6.5 µM	40 µM	++	2.5 µM	16 µM	24 µM	48 µM
COc1cc2c3c(n(CCCN(C)C)c(=O)c2cc1OC)-c1ccncc1C3=O.O=C(O)C(F)(F)F [Compound 127, 9-Aza-5,6-dihydro-6-(3-dimethylaminopropyl)-2,3-dimethoxy-5,11-dioxo-11H-indeno[1,2-]isoquinoline Trifluoroacetate]	–	8.5 µM	2.9 µM	3.9 µM	6.5 µM	12 µM	+ (+ weak activity;)	0.62 µM	6.5 µM	7.4 µM	> 100 µM
COc1cc2c3c(n(CCCN4CCOCC4)c(=O)c2cc1OC)-c1ccncc1C3=O.O=C(O)C(F)(F)F [Compound 128, 9-Aza-5,6-dihydro-6-(3-(4-morpholino)propyl)-2,3-dimethoxy-5,11-dioxo-11H-indeno[1,2-c]isoquinoline Trifluoroacetate]	–	5.9 µM	7.6 µM	1.9 µM	5 µM	> 100 µM	++	0.39 µM	9.5 µM	12 µM	85 µM
